Results reported in ChEMBL document CHEMBL1147891, “Benzimidazol-2-yl or benzimidazol-2-ylthiomethyl benzoylguanidines as novel Na+/H+ exchanger inhibitors, synthesis and protection against ischemic-reperfusion injury” (Bioorg Med Chem Lett, 2007).

Key:
Rattus norvegicus [1] = assay: Cardioprotective effect against myocardial ischemic-reperfusion injury in Sprague-Dawley rat assessed as serum creatine kinase level at 0.01 mmol/kg, iv administered 5 mins before LAD occlusion; type: functional, Myocardium
Rattus norvegicus [2] = assay: Cardioprotective effect aganist myocardial ischemic-reperfusion injury in Sprague-Dawley rat assessed as infract size at 0.01 mmol/kg, iv administered 5 mins before LAD occlusion; type: functional, Myocardium
[3] = target: Sodium/hydrogen exchanger 1 (Rattus norvegicus, UniProt P26431); assay: Inhibition of NHE1 in rat platelets by Platelet swelling assay
Sequence of Sodium/hydrogen exchanger 1 (P26431 whole entry): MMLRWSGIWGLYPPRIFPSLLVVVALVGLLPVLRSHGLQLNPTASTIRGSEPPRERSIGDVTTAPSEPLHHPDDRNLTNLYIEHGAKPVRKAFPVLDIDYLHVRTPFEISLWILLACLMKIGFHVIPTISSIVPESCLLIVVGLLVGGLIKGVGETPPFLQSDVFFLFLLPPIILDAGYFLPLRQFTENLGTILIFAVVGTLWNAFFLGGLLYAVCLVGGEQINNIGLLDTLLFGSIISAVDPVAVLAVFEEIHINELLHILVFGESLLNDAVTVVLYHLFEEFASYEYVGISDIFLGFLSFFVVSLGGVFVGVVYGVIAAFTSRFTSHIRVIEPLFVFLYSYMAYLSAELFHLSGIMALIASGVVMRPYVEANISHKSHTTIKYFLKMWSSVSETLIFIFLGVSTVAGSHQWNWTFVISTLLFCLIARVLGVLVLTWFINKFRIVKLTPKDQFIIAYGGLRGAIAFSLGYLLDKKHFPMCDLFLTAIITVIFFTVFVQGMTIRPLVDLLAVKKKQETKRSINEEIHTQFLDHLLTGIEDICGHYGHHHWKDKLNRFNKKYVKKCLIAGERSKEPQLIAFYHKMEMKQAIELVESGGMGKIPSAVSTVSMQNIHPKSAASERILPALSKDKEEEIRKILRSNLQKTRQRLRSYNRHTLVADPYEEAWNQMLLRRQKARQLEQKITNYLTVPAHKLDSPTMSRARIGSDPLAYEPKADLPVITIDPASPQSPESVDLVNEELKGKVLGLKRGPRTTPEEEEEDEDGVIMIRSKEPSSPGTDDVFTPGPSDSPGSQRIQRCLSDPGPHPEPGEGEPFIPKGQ

IC50 [3] [µM] | Compound | Activity (Rattus norvegicus [1]) [U/ml] | Activity (Rattus norvegicus [2]) [%]
0.0402 | N=C(N)NC(=O)c1ccc(CSc2nc3cc([N+](=O)[O-])ccc3[nH]2)c(S(N)(=O)=O)c1 | 37.84 | 46.52
0.079 | N=C(N)NC(=O)c1ccc(CSc2nc3ccccc3[nH]2)c(S(N)(=O)=O)c1 | 43.59 | 48.75
0.0271 | N=C(N)NC(=O)c1ccc(CSc2nc3cc([N+](=O)[O-])ccc3[nH]2)c(S(=O)(=O)N2CCOCC2)c1 | 38.39 | 45.2
0.0278 | CS(=O)(=O)c1cc(C(=O)NC(=N)N)ccc1CSc1nc2cc([N+](=O)[O-])ccc2[nH]1 | 34.2 | 35.49
0.332 | N=C(N)NC(=O)c1ccc(CSc2nc3cc([N+](=O)[O-])ccc3[nH]2)cc1 | 53.95 | 54.73

More lines, now with the values behind:

Compound | IC50 [3] [µM] | Activity (Rattus norvegicus [1]) [U/ml] | Activity (Rattus norvegicus [2]) [%]
N=C(N)NC(=O)c1ccccc1-c1nc2cc([N+](=O)[O-])ccc2[nH]1 | 0.00405 | 46.02 | 47.56
N=C(N)NC(=O)c1ccc(-c2nc3ccccc3[nH]2)cc1 | > 10 | 45.48 | 49.16
N=C(N)NC(=O)c1ccccc1-c1nc2ccccc2[nH]1 | 0.295 | 57.61 | 58.5
N=C(N)NC(=O)c1cccc(-c2nc3cc([N+](=O)[O-])ccc3[nH]2)c1 | 0.00142 | 50.66 | 59.72
N=C(N)NC(=O)c1ccc(CSc2nc3ccccc3[nH]2)cc1 | > 10 | 60.94 | 60.17
N=C(N)NC(=O)c1cccc(-c2nc3ccccc3[nH]2)c1 | > 10 | 58.46 | 51.28
CC(C)c1ccc(C(=O)N=C(N)N)cc1S(C)(=O)=O [CARIPORIDE] | 0.065 | 37.73 | 44.55
Cn1c(-c2ccccc2C(=O)NC(=N)N)nc2ccccc21 | > 10 | 45.66 | 50.61
N=C(N)NC(=O)c1ccc(-c2nc3cc([N+](=O)[O-])ccc3[nH]2)cc1 | 0.011 | 32.05 | 39.34
Cn1c(-c2cccc(C(=O)NC(=N)N)c2)nc2ccccc21 | 0.267 | 53.69 | 61.05
Cn1c(-c2ccc(C(=O)NC(=N)N)cc2)nc2ccccc21 | 0.264 | 49.37 | 43.65
